The target of assay [1] is T1, ClbP (Escherichia coli, UniProt Q0P7K6). In words: ClbP cell lysate activity (inhibition) assay, fluorogenic substrate. It counts as biochemical. As to conditions: ClbP Lysate Inhibition Assay: IC50, E. coli ClbP+ lysozyme-EDTA lysates, 5 μM fluorogenic substrate, inhibitor 0-300 μM, 37° C., singlicate. In outline: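 E. coli ClbP+ overnight culture lysed with lysozyme-EDTA (30 min, 37 °C); lysate (fivefold concentrated vs culture) mixed with inhibitor (0–300 μM, 4% DMSO) and 5 μM fluorogenic substrate. Fluorescence (ex 360/em 460 nm) read at 37 °C; 0–20 min rates normalized to no-inhibitor, three-parameter IC50 fit, singlicate.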

The target in assay [2] is T1, ClbP. Kind of assay: ClbP whole cell activity (inhibition) assay, fluorogenic substrate. It counts as cell-based, E. coli. In outline: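 E. coli ClbP+ overnight culture washed and concentrated fivefold in PBS, mixed with inhibitor (0–300 μM, 4% DMSO) and 5 μM fluorogenic substrate at 37 °C. Fluorescence (ex 360/em 460 nm) read every 2 min for 46 min. Rates from 10–30 min normalized to no inhibitor and fit to a three-parameter IC50.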

The target of assay [3] is Full-length WT ClbP (Escherichia coli, UniProt Q0P7K6). In words: ClbP molecular (purified protein) enzymatic inhibition assay, fluorogenic substrate. It counts as biochemical, E. coli.

Some results are limits rather than exact numbers.

Take `CCCCCCCNC(=O)[C@H](CC(N)=O)NC(=O)OCc1ccccc1` [Compound CCIX]: the concentration for half-maximal inhibition (IC50) was more than 300 µM in assay [1], more than 300 µM in assay [2] and 100 to 300 µM in assay [3].
As for `CCCCCCCC(=O)N[C@](C)(CC(N)=O)C(=O)NCCc1ccc(O)cc1` [Compound CCCXI], the IC50 in assay [1], in assay [2] and in assay [3] was more than 300 µM each time.
As for `CCCCCCCC(=O)N[C@H](CN[C@@H](C)C(=O)OC)CC(N)=O` [Compound CCLXXXI], the IC50 in assay [1] is more than 300 µM; in assay [2], more than 300 µM; in assay [3], 100 to 300 µM.
`NC(=O)C[C@@H](NC(=O)/C=C/CC1CCCC1)C(=O)NCCc1ccc(O)cc1` [Compound CCLX]: the half-inhibitory concentration (IC50) in assay [1], in assay [2] and in assay [3] was less than 100 µM in each case.
Regarding `CCCCCCCC(=O)N[C@H](CC(N)=O)C(=O)NCCc1ccccn1` [Compound CCV], the IC50 in assay [1], in assay [2] and in assay [3] was less than 100 µM each time.
`NC(=O)C[C@@H](NC(=O)CCCCCCC(F)(F)F)C(=O)NCCc1ccc(O)cc1` [Compound CCCV]: the IC50 in assay [1], in assay [2] and in assay [3] was less than 100 µM each time.
In the case of `CCCCCCCC(=O)N[C@H](CC(N)=O)C(=O)NCCC1CCN(C)CC1` [Compound CCXIX], the IC50 was 100 to 300 µM in assay [1], less than 100 µM in assay [2] and less than 100 µM in assay [3].
For the compound `CCCCCCCC(=O)N[C@H](CC(N)=O)C(=O)NCCN1CCNCC1` [Compound CCXX], the IC50 in assay [1], in assay [2] and in assay [3] was less than 100 µM in each case.
Take `NC(=O)C[C@@H](NC(=O)CCCc1ccc(O)cc1)C(=O)NCCc1ccc(O)cc1` [Compound CCLIII]: the IC50 in assay [1], in assay [2] and in assay [3] was less than 100 µM in each case.
For `CCCCCCCC(=O)N[C@H](CC(N)=O)C(=O)C(=O)NCc1ccccc1` [Compound CCLXXXIII], the IC50 in assay [1], in assay [2] and in assay [3] was less than 100 µM throughout.
As for `CCCCCCCC(=O)N[C@H](CC(N)=O)C(=O)N[C@@H](C)Cc1ccccc1` [Compound CCIV], the half-maximal inhibitory concentration (IC50) in assay [1] is more than 300 µM; in assay [2], more than 300 µM; in assay [3] it was 100 to 300 µM.
With `NC(=O)C[C@@H](NC(=O)CCCC1CCCCC1)C(=O)NCCc1ccccc1` [Compound CCLXX], the 50% inhibitory concentration (IC50) in assay [1], in assay [2] and in assay [3] was less than 100 µM in each case.
With `CCCCCCCC(=O)N[C@H](CC(N)=O)C(=O)N[C@H](C)Cc1ccccc1` [Compound CCIII], the half-maximal inhibitory concentration (IC50) in assay [1], in assay [2] and in assay [3] was less than 100 µM throughout.
In the case of `CCCCCCCC(=O)N[C@H](CC(N)=O)C(=O)NCCc1ccc(C)cc1` [Compound CXCVI], the IC50 in assay [1], in assay [2] and in assay [3] was less than 100 µM in each case.
Turning to `NC(=O)C[C@@H](NC(=O)CCCCCCCCC(F)(F)F)C(=O)NCCc1ccc(O)cc1` [Compound CCCIV], the IC50 in assay [1], in assay [2] and in assay [3] was less than 100 µM each time.
Regarding `O=C(/C=C/CC1CCCCC1)N[C@H](CC(=O)NO)C(=O)NCCc1ccc(O)cc1` [Compound CCXCVII], the IC50 in assay [1], in assay [2] and in assay [3] was less than 100 µM each time.
Turning to `CCCCCCCC(=O)N[C@H](CC(N)=O)c1nnc(CCc2ccccc2)o1` [Compound CCXI], the IC50 was more than 300 µM in assay [1], more than 300 µM in assay [2] and 100 to 300 µM in assay [3].
For the compound `NC(=O)C[C@@H](NC(=O)CCCCCCC(=O)O)C(=O)NCCc1ccccc1` [Compound CCLXIV], the IC50 in assay [1] was more than 300 µM; in assay [2], more than 300 µM; in assay [3], 100 to 300 µM.
As to `CCCCCCCC(=O)N[C@H](CC(N)=O)C(=O)NCCc1ccc(F)cc1` [Compound CCLXXIV], the 50% inhibitory concentration (IC50) in assay [1], in assay [2] and in assay [3] was less than 100 µM in each case.
With `CCCCCCCC(=O)N[C@H](CC(N)=O)C(=O)NCCOc1c(F)cccc1F` [Compound CCLV], the IC50 in assay [1], in assay [2] and in assay [3] was less than 100 µM each time.
On to `CCCCCCC(C)(C)C(=O)N[C@@H](CNCCc1ccccc1)CC(N)=O` [Compound CCXII], for which the IC50 in assay [1] was more than 300 µM; in assay [2] it was more than 300 µM; in assay [3], 100 to 300 µM.
Regarding `O=C(C[C@@H](NC(=O)CCC1CCCCC1)C(=O)NCCc1ccc(O)c(O)c1)NO` [Compound CCLXXXIV], the IC50 in assay [1] was 100 to 300 µM; in assay [2], 100 to 300 µM; in assay [3], less than 100 µM.
On to `O=C(/C=C/CC1CCCC1)N[C@H](CC(=O)NO)C(=O)NCCc1ccc(O)cc1` [Compound CCXCVIII], for which the IC50 in assay [1], in assay [2] and in assay [3] was less than 100 µM in each case.
`NC(=O)C[C@@H](NC(=O)CCC1CCCCC1)C(=O)NCCc1ccccc1` [Compound CCXLIII]: the IC50 in assay [1], in assay [2] and in assay [3] was less than 100 µM in each case.
For the compound `NC(=O)C[C@@H](NC(=O)CCCC1CCCCC1)C(=O)NCCc1ccccn1` [Compound CCCIII], the IC50 in assay [1], in assay [2] and in assay [3] was less than 100 µM in each case.
`CCCCCCCC(=O)N[C@H](CC(N)=O)C(=O)NCCc1nnn[nH]1` [Compound CCXXXIII]: the IC50 in assay [1], in assay [2] and in assay [3] was less than 100 µM each time.
Consider `CCCCCCCC(=O)N[C@H](CC(N)=O)c1nnn(CCc2ccccc2)n1` [Compound XVIII], for which the IC50 in assay [1] was more than 300 µM; in assay [2], more than 300 µM; in assay [3] it was 100 to 300 µM.
On to `CCCCCCCC(=O)N[C@](C)(CC(N)=O)C(=O)NCCc1ccccc1` [Compound LXX], for which the IC50 in assay [1] is more than 300 µM; in assay [2] it was more than 300 µM; in assay [3], 100 to 300 µM.
In the case of `NC(=O)C[C@@H](NC(=O)CCCc1ccncc1)C(=O)NCCc1ccc(O)cc1` [Compound CCLI], the values for the IC50 in assay [1], in assay [2] and in assay [3] were 100 to 300 µM, less than 100 µM and less than 100 µM, respectively.
On to `CCCCCCCC(=O)N[C@H](CC(N)=O)C(=O)NCCc1ccsc1` [Compound CCVI], for which the half-maximal inhibitory concentration (IC50) in assay [1], in assay [2] and in assay [3] was less than 100 µM throughout.
Take `CCCCCCCC(=O)N[C@H](CC(N)=O)C(=O)NCCc1ccc(C(=O)OC)cc1` [Compound CXCVII]: the IC50 in assay [1], in assay [2] and in assay [3] was less than 100 µM in each case.
For `CCCCCCCCCC(=O)N[C@H](CC(N)=O)C(=O)NCCc1ccccn1` [Compound CCCIX], the 50% inhibitory concentration (IC50) in assay [1], in assay [2] and in assay [3] was less than 100 µM in each case.
Turning to `CCCCCCCC(=O)N[C@H](CC(=O)NO)C(=O)NCCc1ccc(O)c(O)c1` [Compound CCXCIII], the IC50 in assay [1], in assay [2] and in assay [3] was less than 100 µM each time.
Regarding `CCCCCCCC(=O)N[C@@H]1CC(=O)NC1(O)C(=O)NCCCC` (stereo partly drawn) [Compound CCXC], the IC50 in assay [1], in assay [2] and in assay [3] was less than 100 µM each time.
As for `CCCCCCCC(=O)N[C@H](CC(N)=O)C(=O)NCCc1ccc(OC)c(OC)c1` [Compound CCXLIX], the IC50 in assay [1], in assay [2] and in assay [3] was less than 100 µM each time.
For the compound `CCCCCCCC(=O)N[C@H](CC(N)=O)C(=O)NCCc1ccc(O)cc1O` [Compound CCXXV], the IC50 in assay [1], in assay [2] and in assay [3] was less than 100 µM throughout.
In the case of `CCCCCCCC(=O)N[C@H](CC(N)=O)C(=O)NCCN1CCN(C)CC1` [Compound CXC], the IC50 is more than 300 µM in assay [1], more than 300 µM in assay [2] and 100 to 300 µM in assay [3].
As for `CCCCCCCC(=O)N[C@H](CC(=O)NC)C(=O)NCCc1ccc(O)cc1` [Compound CCXLVI], the IC50 in assay [1] was 100 to 300 µM; in assay [2], less than 100 µM; in assay [3], less than 100 µM.
Regarding `CCCCCCCC(=O)N[C@H](CC(N)=O)c1nc2ccccc2[nH]1` [Compound CCVII], the IC50 was more than 300 µM in assay [1], more than 300 µM in assay [2] and less than 100 µM in assay [3].
Regarding `CCCCCCCC(=O)N[C@@H](CNCCc1ccccc1)CC(N)=O` [Compound IX], the figures for the IC50 in assay [1], in assay [2] and in assay [3] were more than 300 µM, more than 300 µM and 100 to 300 µM, respectively.
For the compound `CCCCCCCCCC(=O)N[C@H](CC(N)=O)C(=O)NCCc1ccccc1` [Compound CCLXVI], the IC50 in assay [1], in assay [2] and in assay [3] was less than 100 µM throughout.
For `NC(=O)C[C@@H](NC(=O)CCCC1CCCCCC1)C(=O)NCCc1ccc(O)cc1` [Compound CCXLI], the half-inhibitory concentration (IC50) in assay [1], in assay [2] and in assay [3] was less than 100 µM throughout.
Consider `CCCCCCCC(=O)N[C@H]1CC(=O)NC1(O)C(=O)NCc1ccccc1` (stereo partly drawn) [Compound CCLXXXIX], for which the IC50 in assay [1] was 100 to 300 µM; in assay [2] it was 100 to 300 µM; in assay [3], less than 100 µM.
As for `CCCCCCCC(=O)N[C@H](CC(N)=O)c1nnn(C(C)(C)C)n1` [Compound XIX], the IC50 in assay [1] is more than 300 µM; in assay [2], more than 300 µM; in assay [3], 100 to 300 µM.

(Values after patent publication US20230234917A1, “ASPARAGINE DERIVATIVES AND METHODS OF USING SAME” (priority 2020, published 2023).)
